Results taken from PubChem BioAssay (NCI).
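These data come from cells grown in 96-well plates and exposed to compound for 48 hours at five concentrations. GI50 is the concentration that inhibits growth by half. TGI marks complete inhibition of growth.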

Experiments:
Experiment in all cases: NCI tumour cell line growth inhibition, 48 h; in the data active = GI50 below about 0.43 µM; inactive = the rest
HCT-15 colon = system: HCT-15 colon
SN12C renal = system: SN12C renal
HS 578T breast = system: HS 578T breast
U251 CNS = system: U251 CNS
SF-295 CNS = system: SF-295 CNS
PC-3 prostate = system: PC-3 prostate
LOX IMVI melanoma = system: LOX IMVI melanoma
NCI-H226 lung = system: NCI-H226 lung
SR leukemia = system: SR leukemia
SK-MEL-28 melanoma = system: SK-MEL-28 melanoma
OVCAR-4 ovarian = system: OVCAR-4 ovarian
ACHN renal = system: ACHN renal
MDA-MB-231 breast = system: MDA-MB-231 breast
UO-31 renal = system: UO-31 renal
EKVX NSCLC = system: EKVX NSCLC
HL-60(TB) leukemia = system: HL-60(TB) leukemia
SK-OV-3 ovarian = system: SK-OV-3 ovarian
KM12 colon = system: KM12 colon
SF-539 CNS = system: SF-539 CNS
CAKI-1 renal = system: CAKI-1 renal
DU-145 prostate = system: DU-145 prostate
UACC-62 melanoma = system: UACC-62 melanoma
MOLT-4 leukemia = system: MOLT-4 leukemia
SNB-75 CNS = system: SNB-75 CNS
MCF7 breast = system: MCF7 breast
HOP-62 NSCLC = system: HOP-62 NSCLC
SW-620 colon = system: SW-620 colon
T-47D breast = system: T-47D breast
CCRF-CEM leukemia = system: CCRF-CEM leukemia
NCI-H23 lung = system: NCI-H23 lung
SNB-19 CNS = system: SNB-19 CNS
K-562 leukemia = system: K-562 leukemia
HCT-116 colon = system: HCT-116 colon
TK-10 renal = system: TK-10 renal
NCI-H460 lung = system: NCI-H460 lung
IGROV1 ovarian = system: IGROV1 ovarian
A498 renal = system: A498 renal
MDA-MB-435 = system: MDA-MB-435
M14 melanoma = system: M14 melanoma
SF-268 CNS = system: SF-268 CNS
RPMI-8226 leukemia = system: RPMI-8226 leukemia
NCI/ADR-RES ovarian = system: NCI/ADR-RES ovarian
OVCAR-8 ovarian = system: OVCAR-8 ovarian
A549 NSCLC = system: A549 NSCLC
MALME-3M melanoma = system: MALME-3M melanoma
HT29 colon = system: HT29 colon
HOP-92 NSCLC = system: HOP-92 NSCLC
HCC-2998 colon = system: HCC-2998 colon
OVCAR-3 ovarian = system: OVCAR-3 ovarian
SK-MEL-2 melanoma = system: SK-MEL-2 melanoma
BT-549 breast = system: BT-549 breast
786-0 renal = system: 786-0 renal
SK-MEL-5 melanoma = system: SK-MEL-5 melanoma
COLO 205 colon = system: COLO 205 colon
UACC-257 melanoma = system: UACC-257 melanoma
NCI-H522 lung = system: NCI-H522 lung
OVCAR-5 ovarian = system: OVCAR-5 ovarian

C[C@]12CC[C@@H]3c4ccc(OC(=O)N(CCCl)CCCl)cc4CC[C@H]3[C@@H]1CC[C@@H]2OP(=O)(O)O
42.2 µM: TGI (A498 renal)
79.1 µM: TGI (BT-549 breast)
> 76.9 µM: TGI (HS 578T breast)
> 71.5 µM: TGI (NCI-H522 lung)
33.3 µM: TGI (SR leukemia)
> 66.7 µM: TGI (SNB-75 CNS)
inactive: GI50 (HCT-15 colon) 43.5 µM | GI50 (SN12C renal) 17.2 µM | GI50 (HS 578T breast) 26.7 µM | GI50 (U251 CNS) 33.9 µM | GI50 (SF-295 CNS) 12.5 µM | GI50 (PC-3 prostate) 41.2 µM | GI50 (LOX IMVI melanoma) 46.2 µM | GI50 (NCI-H226 lung) 43.7 µM | GI50 (SR leukemia) 9.82 µM | GI50 (SK-MEL-28 melanoma) 37.3 µM | GI50 (OVCAR-4 ovarian) > 58.1 µM | GI50 (ACHN renal) 62.6 µM | GI50 (MDA-MB-231 breast) 26.8 µM | GI50 (UO-31 renal) 79.9 µM | GI50 (EKVX NSCLC) 33.2 µM | GI50 (HL-60(TB) leukemia) 30.1 µM | GI50 (SK-OV-3 ovarian) 32.7 µM | GI50 (KM12 colon) 40.3 µM | GI50 (SF-539 CNS) 22.3 µM | GI50 (CAKI-1 renal) > 77.1 µM | GI50 (DU-145 prostate) 59.5 µM | GI50 (UACC-62 melanoma) 22.9 µM | GI50 (MOLT-4 leukemia) > 59.3 µM | GI50 (SNB-75 CNS) 29.2 µM | GI50 (MCF7 breast) > 100 µM | GI50 (HOP-62 NSCLC) 63 µM | GI50 (SW-620 colon) > 80.7 µM | GI50 (T-47D breast) > 56.4 µM | GI50 (CCRF-CEM leukemia) 25.7 µM | GI50 (NCI-H23 lung) 38.4 µM | GI50 (SNB-19 CNS) 28.5 µM | GI50 (K-562 leukemia) > 73.5 µM | GI50 (HCT-116 colon) 41.9 µM | GI50 (TK-10 renal) > 38.3 µM | GI50 (NCI-H460 lung) 36.1 µM | GI50 (IGROV1 ovarian) > 100 µM | GI50 (A498 renal) 16 µM | GI50 (MDA-MB-435) 15.6 µM | GI50 (M14 melanoma) 37.7 µM | GI50 (SF-268 CNS) > 75.5 µM | GI50 (RPMI-8226 leukemia) 39.8 µM | GI50 (NCI/ADR-RES ovarian) 49.5 µM | GI50 (OVCAR-8 ovarian) > 85.6 µM | GI50 (A549 NSCLC) 48.8 µM | GI50 (MALME-3M melanoma) 83.5 µM | GI50 (HT29 colon) 33.7 µM | GI50 (HOP-92 NSCLC) > 100 µM | GI50 (HCC-2998 colon) > 74.4 µM | GI50 (OVCAR-3 ovarian) 46.7 µM | GI50 (SK-MEL-2 melanoma) 41.8 µM | GI50 (BT-549 breast) 27.1 µM | GI50 (786-0 renal) 43.9 µM | GI50 (SK-MEL-5 melanoma) 37.7 µM | GI50 (COLO 205 colon) 57.8 µM | GI50 (UACC-257 melanoma) 44.5 µM | GI50 (NCI-H522 lung) 28.8 µM | GI50 (OVCAR-5 ovarian) > 62.7 µM
> 100 µM: TGI (HCT-15 colon) | TGI (U251 CNS) | TGI (PC-3 prostate) | TGI (LOX IMVI melanoma) | TGI (NCI-H226 lung) | TGI (SK-MEL-28 melanoma) | TGI (OVCAR-4 ovarian) | TGI (ACHN renal) | TGI (UO-31 renal) | TGI (EKVX NSCLC) | TGI (KM12 colon) | TGI (CAKI-1 renal) | TGI (DU-145 prostate) | TGI (MOLT-4 leukemia) | TGI (MCF7 breast) | TGI (HOP-62 NSCLC) | TGI (SW-620 colon) | TGI (T-47D breast) | TGI (NCI-H23 lung) | TGI (K-562 leukemia) | TGI (HCT-116 colon) | TGI (TK-10 renal) | TGI (NCI-H460 lung) | TGI (IGROV1 ovarian) | TGI (M14 melanoma) | TGI (SF-268 CNS) | TGI (RPMI-8226 leukemia) | TGI (NCI/ADR-RES ovarian) | TGI (OVCAR-8 ovarian) | TGI (A549 NSCLC) | TGI (MALME-3M melanoma) | TGI (HT29 colon) | TGI (HOP-92 NSCLC) | TGI (HCC-2998 colon) | TGI (SK-MEL-2 melanoma) | TGI (786-0 renal) | TGI (SK-MEL-5 melanoma) | TGI (COLO 205 colon) | TGI (OVCAR-5 ovarian)
> 72.5 µM: TGI (UACC-62 melanoma)
40.1 µM: TGI (SN12C renal)
> 95.2 µM: TGI (OVCAR-3 ovarian)
> 89.2 µM: TGI (SK-OV-3 ovarian)
> 64.3 µM: TGI (MDA-MB-231 breast)
32.5 µM: TGI (SF-295 CNS)
> 78.7 µM: TGI (CCRF-CEM leukemia)
98.5 µM: TGI (HL-60(TB) leukemia)
> 80.6 µM: TGI (UACC-257 melanoma)
50.4 µM: TGI (MDA-MB-435)
> 57.8 µM: TGI (SNB-19 CNS)
> 58.1 µM: TGI (SF-539 CNS)
